Source: ChEMBL document CHEMBL3877252, “Fluorescein hydrazones: A series of novel non-intercalative topoisomerase IIα catalytic inhibitors induce G1 arrest and apoptosis in breast and colon cancer cells” (Eur J Med Chem, 2017)
Calls of active or inactive are those of the source. No cut-off for these calls is given here.

Assays:
[1] = biological target: T1, DNA topoisomerase 1 (Homo sapiens) (UniProt P11387); test: Inhibition of human topoisomerase-1 assessed as inhibition of relaxation of supercoiled pBR322 plasmid DNA at 100 uM measured after 1 hr by ethidium bromide staining based agarose gel electrophoresis relative to control
T1 sequence (whole entry): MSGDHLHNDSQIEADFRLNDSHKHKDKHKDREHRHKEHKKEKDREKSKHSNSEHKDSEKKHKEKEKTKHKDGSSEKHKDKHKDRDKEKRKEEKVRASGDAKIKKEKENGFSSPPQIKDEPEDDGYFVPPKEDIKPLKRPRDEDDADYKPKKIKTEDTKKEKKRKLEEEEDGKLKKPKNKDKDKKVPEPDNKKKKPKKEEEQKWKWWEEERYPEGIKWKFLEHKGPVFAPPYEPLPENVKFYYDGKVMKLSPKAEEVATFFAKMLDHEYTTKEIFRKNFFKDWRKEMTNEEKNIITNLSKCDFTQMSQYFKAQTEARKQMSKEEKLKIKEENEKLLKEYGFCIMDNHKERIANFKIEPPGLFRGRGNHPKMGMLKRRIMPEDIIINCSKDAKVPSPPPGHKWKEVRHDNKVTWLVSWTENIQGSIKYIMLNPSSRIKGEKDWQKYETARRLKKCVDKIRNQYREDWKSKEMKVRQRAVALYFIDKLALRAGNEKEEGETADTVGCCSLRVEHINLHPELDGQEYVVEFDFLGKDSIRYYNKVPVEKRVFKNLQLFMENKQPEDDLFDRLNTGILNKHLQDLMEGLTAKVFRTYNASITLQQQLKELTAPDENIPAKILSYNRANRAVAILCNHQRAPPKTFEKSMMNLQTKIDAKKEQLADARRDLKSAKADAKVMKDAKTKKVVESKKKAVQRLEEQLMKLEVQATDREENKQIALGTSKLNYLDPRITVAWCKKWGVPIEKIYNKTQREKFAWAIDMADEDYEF

[2] = biological target: T1, DNA topoisomerase 1 (Homo sapiens); test: Inhibition of human topoisomerase-1 assessed as inhibition of relaxation of supercoiled pBR322 plasmid DNA at 20 uM measured after 1 hr by ethidium bromide staining based agarose gel electrophoresis relative to control
[3] = biological target: DNA topoisomerase 2-alpha (Homo sapiens) (UniProt P11388); test: Inhibition of human topoisomerase-2 alpha assessed as inhibition of relaxation of supercoiled pBR322 plasmid DNA at 100 uM measured after 1 hr by ethidium bromide staining based agarose gel electrophoresis relative to control
Sequence of DNA topoisomerase 2-alpha (Homo sapiens) (P11388 whole entry): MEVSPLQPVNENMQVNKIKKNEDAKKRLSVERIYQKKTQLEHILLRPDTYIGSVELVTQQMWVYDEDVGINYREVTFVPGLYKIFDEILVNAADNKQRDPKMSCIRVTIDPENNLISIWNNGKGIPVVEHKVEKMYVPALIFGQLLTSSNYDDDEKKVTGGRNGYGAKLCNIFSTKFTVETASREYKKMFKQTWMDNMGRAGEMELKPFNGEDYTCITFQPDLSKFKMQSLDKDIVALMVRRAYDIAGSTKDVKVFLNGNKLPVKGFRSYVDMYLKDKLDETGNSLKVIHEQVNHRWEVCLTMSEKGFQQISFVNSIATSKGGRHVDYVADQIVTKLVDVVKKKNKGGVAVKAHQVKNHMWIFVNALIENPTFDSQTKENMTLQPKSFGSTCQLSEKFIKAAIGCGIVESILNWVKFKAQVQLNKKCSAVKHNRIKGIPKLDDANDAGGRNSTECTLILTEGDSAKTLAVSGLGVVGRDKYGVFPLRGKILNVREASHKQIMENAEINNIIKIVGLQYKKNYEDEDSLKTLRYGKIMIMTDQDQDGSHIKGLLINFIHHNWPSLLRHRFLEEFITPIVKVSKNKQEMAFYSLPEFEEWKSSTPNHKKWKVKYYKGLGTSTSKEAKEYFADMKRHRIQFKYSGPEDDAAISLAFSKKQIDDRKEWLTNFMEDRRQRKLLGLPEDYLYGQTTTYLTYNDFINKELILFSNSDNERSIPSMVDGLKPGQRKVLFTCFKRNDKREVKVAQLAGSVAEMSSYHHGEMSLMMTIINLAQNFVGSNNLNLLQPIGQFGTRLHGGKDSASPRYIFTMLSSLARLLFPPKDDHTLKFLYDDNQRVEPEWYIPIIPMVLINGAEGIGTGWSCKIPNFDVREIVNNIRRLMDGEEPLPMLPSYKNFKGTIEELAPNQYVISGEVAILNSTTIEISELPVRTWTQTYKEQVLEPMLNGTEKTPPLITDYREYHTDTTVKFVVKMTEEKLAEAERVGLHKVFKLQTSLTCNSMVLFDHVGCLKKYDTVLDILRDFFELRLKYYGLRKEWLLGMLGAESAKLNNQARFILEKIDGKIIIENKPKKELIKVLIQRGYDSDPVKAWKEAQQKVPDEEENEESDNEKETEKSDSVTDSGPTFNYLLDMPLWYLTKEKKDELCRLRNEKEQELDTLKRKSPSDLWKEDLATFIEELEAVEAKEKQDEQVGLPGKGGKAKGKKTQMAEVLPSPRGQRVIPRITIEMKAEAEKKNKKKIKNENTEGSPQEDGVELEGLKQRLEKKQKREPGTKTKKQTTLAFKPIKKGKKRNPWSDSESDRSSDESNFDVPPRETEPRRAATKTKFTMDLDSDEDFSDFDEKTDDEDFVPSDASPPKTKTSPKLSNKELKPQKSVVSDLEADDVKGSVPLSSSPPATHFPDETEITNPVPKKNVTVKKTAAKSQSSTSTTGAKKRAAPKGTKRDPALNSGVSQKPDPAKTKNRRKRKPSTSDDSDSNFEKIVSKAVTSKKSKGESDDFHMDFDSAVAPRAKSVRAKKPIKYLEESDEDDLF

[4] = biological target: DNA topoisomerase 2-alpha (Homo sapiens) (UniProt P11388); test: Inhibition of human topoisomerase-2 alpha assessed as inhibition of relaxation of supercoiled pBR322 plasmid DNA at 20 uM measured after 1 hr by ethidium bromide staining based agarose gel electrophoresis relative to control
[5] = Antiproliferative activity against human T47D cells measured after 72 hrs by CCK8 assay; format: functional, cell-based
[6] = Antiproliferative activity against human DU145 cells measured after 72 hrs by CCK8 assay; format: functional, cell-based; conditions: DU-145, 72 h
[7] = Antiproliferative activity against human HCT15 cells measured after 72 hrs by CCK8 assay; format: functional, cell-based; conditions: HCT-15, 72 h
[8] = Antiproliferative activity against human MCF7 cells measured after 72 hrs by CCK8 assay; format: functional, cell-based; conditions: MCF7, 72 h
[9] = biological target: DNA topoisomerase 2-alpha (Homo sapiens) (UniProt P11388); test: Poison activity at topoisomerase-2 alpha in human HCT15 cells assessed as DNA damage by measuring DNA tail length at 5 uM measured after 24 hrs by alkaline comet assay; format: cell-based; conditions: HCT-15
[10] = biological target: DNA topoisomerase 2-alpha (Homo sapiens) (UniProt P11388); test: Poison activity at topoisomerase-2 alpha in human HCT15 cells assessed as DNA damage by measuring DNA tail length at 10 uM measured after 24 hrs by alkaline comet assay; format: cell-based; conditions: HCT-15
[11] = biological target: DNA topoisomerase 2-alpha (Homo sapiens) (UniProt P11388); test: Inhibition of topoisomerase-2 alpha catalytic activity in human HCT15 cells assessed as appearance of free protein band at 50 uM measured after 2 hrs by Western blot analysis; format: cell-based; conditions: HCT-15
[12] = Cell cycle arrest in human HCT15 cells assessed as decrease in cyclin D1 level measured after 20 hrs; format: functional, cell-based; conditions: HCT-15
[13] = Cell cycle arrest in human HCT15 cells assessed as increase in p27kip1 level measured after 20 hrs; format: functional, cell-based; conditions: HCT-15
[14] = Cell cycle arrest in human HCT15 cells assessed as accumulation at G1 phase at 10 uM by DAPI staining based cell analyzer; format: functional; conditions: HCT-15, TDE = time-dependent effect
[15] = Cell cycle arrest in human HCT15 cells assessed as decrease in cyclin D1 level at 10 uM; format: functional, cell-based; conditions: HCT-15, TDE = time-dependent effect
[16] = Cell cycle arrest in human HCT15 cells assessed as increase in p27kip1 level at 10 uM; format: functional, cell-based; conditions: HCT-15, TDE = time-dependent effect
HCT-15 [17] = test: Induction of apoptosis in human HCT15 cells assessed as increase in cleaved PARP level measured after 24 hrs by Western blot analysis; format: functional, cell-based
HCT-15 [18] = test: Induction of apoptosis in human HCT15 cells assessed as increase in bax level measured after 24 hrs by Western blot analysis; format: functional, cell-based
HCT-15 [19] = test: Induction of apoptosis in human HCT15 cells assessed as decrease in bcl-2 level measured after 24 hrs by Western blot analysis; format: functional, cell-based
[20] = Cell cycle arrest in human HCT15 cells assessed as accumulation at G1 phase at 1 uM after 20 hrs by DAPI staining-based cell analyzer (reference value: 40%); format: functional; conditions: HCT-15
[21] = Cell cycle arrest in human HCT15 cells assessed as accumulation at G1 phase at 3 uM after 20 hrs by DAPI staining-based cell analyzer (reference value: 40%); format: functional; conditions: HCT-15
[22] = Cell cycle arrest in human HCT15 cells assessed as accumulation at G1 phase at 10 uM after 20 hrs by DAPI staining-based cell analyzer (reference value: 40%); format: functional; conditions: HCT-15
[23] = Cell cycle arrest in human HCT15 cells assessed as accumulation at S phase at 1 uM after 20 hrs by DAPI staining-based cell analyzer (reference value: 34%); format: functional; conditions: HCT-15
[24] = Cell cycle arrest in human HCT15 cells assessed as accumulation at S phase at 3 uM after 20 hrs by DAPI staining-based cell analyzer (reference value: 34%); format: functional; conditions: HCT-15
[25] = Cell cycle arrest in human HCT15 cells assessed as accumulation at S phase at 10 uM after 20 hrs by DAPI staining-based cell analyzer (reference value: 34%); format: functional; conditions: HCT-15
[26] = Cell cycle arrest in human HCT15 cells assessed as accumulation at G2/M phase at 1 uM after 20 hrs by DAPI staining-based cell analyzer (reference value: 13%); format: functional; conditions: HCT-15
[27] = Cell cycle arrest in human HCT15 cells assessed as accumulation at G2/M phase at 3 uM after 20 hrs by DAPI staining-based cell analyzer (reference value: 13%); format: functional; conditions: HCT-15
[28] = Cell cycle arrest in human HCT15 cells assessed as accumulation at G2/M phase at 10 uM after 20 hrs by DAPI staining-based cell analyzer (reference value: 13%); format: functional; conditions: HCT-15
[29] = Cell cycle arrest in human HCT15 cells assessed as accumulation at G1 phase at 10 uM after 5 hrs by DAPI staining-based cell analyzer (reference value: 61%); format: functional; conditions: HCT-15
[30] = Cell cycle arrest in human HCT15 cells assessed as accumulation at G1 phase at 10 uM after 10 hrs by DAPI staining-based cell analyzer (reference value: 61%); format: functional; conditions: HCT-15
[31] = Cell cycle arrest in human HCT15 cells assessed as accumulation at G1 phase at 10 uM after 15 hrs by DAPI staining-based cell analyzer (reference value: 61%); format: functional; conditions: HCT-15
[32] = Cell cycle arrest in human HCT15 cells assessed as accumulation at G1 phase at 10 uM after 20 hrs by DAPI staining-based cell analyzer (reference value: 61%); format: functional; conditions: HCT-15
[33] = Cell cycle arrest in human HCT15 cells assessed as accumulation at S phase at 10 uM after 5 hrs by DAPI staining-based cell analyzer (reference value: 10%); format: functional; conditions: HCT-15
[34] = Cell cycle arrest in human HCT15 cells assessed as accumulation at S phase at 10 uM after 10 hrs by DAPI staining-based cell analyzer (reference value: 10%); format: functional; conditions: HCT-15
[35] = Cell cycle arrest in human HCT15 cells assessed as accumulation at S phase at 10 uM after 15 hrs by DAPI staining-based cell analyzer (reference value: 10%); format: functional; conditions: HCT-15
[36] = Cell cycle arrest in human HCT15 cells assessed as accumulation at S phase at 10 uM after 20 hrs by DAPI staining-based cell analyzer (reference value: 10%); format: functional; conditions: HCT-15
[37] = Cell cycle arrest in human HCT15 cells assessed as accumulation at G2/M phase at 10 uM after 5 hrs by DAPI staining-based cell analyzer (reference value: 13%); format: functional; conditions: HCT-15
[38] = Cell cycle arrest in human HCT15 cells assessed as accumulation at G2/M phase at 10 uM after 10 hrs by DAPI staining-based cell analyzer (reference value: 13%); format: functional; conditions: HCT-15
[39] = Cell cycle arrest in human HCT15 cells assessed as accumulation at G2/M phase at 10 uM after 15 hrs by DAPI staining-based cell analyzer (reference value: 13%); format: functional; conditions: HCT-15
[40] = biological target: DNA topoisomerase 2-alpha (Homo sapiens) (UniProt P11388); test: Poison activity at topoisomerase-2 alpha in human T47D cells assessed as DNA damage by measuring DNA tail length at 5 uM measured after 24 hrs by alkaline comet assay; format: cell-based
[41] = biological target: DNA topoisomerase 2-alpha (Homo sapiens) (UniProt P11388); test: Poison activity at topoisomerase-2 alpha in human T47D cells assessed as DNA damage by measuring DNA tail length at 10 uM measured after 24 hrs by alkaline comet assay; format: cell-based
[42] = Cell cycle arrest in human HCT15 cells assessed as accumulation at G2/M phase after 20 hrs by DAPI staining-based cell analyzer; format: functional; conditions: HCT-15
[43] = Cell cycle arrest in human T47D cells assessed as accumulation at G2/M phase after 24 hrs by DAPI staining-based cell analyzer; format: functional
[44] = Cell cycle arrest in human HCT15 cells assessed as accumulation at G1 phase at 0.5 uM after 20 hrs by DAPI staining-based cell analyzer (reference value: 40%); format: functional; conditions: HCT-15
[45] = Cell cycle arrest in human HCT15 cells assessed as accumulation at S phase at 0.5 uM after 20 hrs by DAPI staining-based cell analyzer (reference value: 34%); format: functional; conditions: HCT-15
[46] = Cell cycle arrest in human HCT15 cells assessed as accumulation at G2/M phase at 0.5 uM after 20 hrs by DAPI staining-based cell analyzer (reference value: 13%); format: functional; conditions: HCT-15
[47] = Cell cycle arrest in human T47D cells assessed as accumulation at G1 phase at 1 uM after 24 hrs by DAPI staining-based cell analyzer (reference value: 51%); format: functional
[48] = Cell cycle arrest in human T47D cells assessed as accumulation at S phase at 1 uM after 24 hrs by DAPI staining-based cell analyzer (reference value: 26%); format: functional
[49] = Cell cycle arrest in human T47D cells assessed as accumulation at G2/M phase at 1 uM after 24 hrs by DAPI staining-based cell analyzer (reference value: 15%); format: functional
[50] = Cell cycle arrest in human T47D cells assessed as accumulation at G1 phase at 0.5 uM after 24 hrs by DAPI staining-based cell analyzer (reference value: 51%); format: functional
[51] = Cell cycle arrest in human T47D cells assessed as accumulation at S phase at 0.5 uM after 24 hrs by DAPI staining-based cell analyzer (reference value: 26%); format: functional
[52] = Cell cycle arrest in human T47D cells assessed as accumulation at G2/M phase at 0.5 uM after 24 hrs by DAPI staining-based cell analyzer (reference value: 13%); format: functional

CCOc1ccc2c(c1)Oc1cc(O)ccc1C21c2ccccc2C(=O)N1/N=C/c1ccccc1[N+](=O)[O-] (stereo unspecified)
inhibition [1]: 35.6%
inhibition [2]: 14.8%
inhibition [3]: 62.4%
inhibition [4]: 52.7%
IC50 [5]: > 50000 nM
IC50 [6]: 1430 nM
IC50 [7]: 2400 nM
IC50 [8]: 11400 nM
Activity [9]: 7.72 pixel
Activity [10]: 8.29 pixel
inhibition [11]: Active
Activity [12]: Dose-dependent effect
Activity [13]: Dose-dependent effect
Activity [14]: Tde
Activity [15]: Tde
Activity [16]: Tde
Activity (HCT-15 [17]): Dose-dependent effect
Activity (HCT-15 [18]): Dose-dependent effect
Activity (HCT-15 [19]): Dose-dependent effect
Activity [20]: 45%
Activity [21]: 48%
Activity [22]: 55%
Activity [23]: 28%
Activity [24]: 24%
Activity [25]: 20%
Activity [26]: 14%
Activity [27]: 11%
Activity [28]: 11 to 12%
Activity [29]: 64%
Activity [30]: 67%
Activity [31]: 68%
Activity [32]: 70%
Activity [33]: 8%
Activity [34]: 8%
Activity [35]: 8%
Activity [36]: 7%
Activity [37]: 11%
Activity [38]: 12%
Activity [39]: 11%

COc1cc([C@@H]2c3cc4c(cc3[C@@H](O[C@@H]3O[C@@H]5CO[C@@H](C)O[C@H]5[C@H](O)[C@H]3O)[C@H]3COC(=O)[C@H]23)OCO4)cc(OC)c1O [ETOPOSIDE]
IC50 [5]: 4850 nM
IC50 [6]: 2190 nM
IC50 [7]: 1270 nM
IC50 [8]: 35600 nM
Activity [9]: 37.5 pixel
Activity [10]: 46.3 pixel
Activity [40]: 62.7 pixel
Activity [41]: 66.2 pixel
Activity [42]: Dose-dependent effect
Activity [43]: Dose-dependent effect
Activity [20]: 17%
Activity [23]: 25%
Activity [26]: 32%
Activity [44]: 21%
Activity [45]: 26%
Activity [46]: 29%
Activity [47]: 35%
Activity [48]: 22%
Activity [49]: 33%
Activity [50]: 39%
Activity [51]: 24%
Activity [52]: 31%
